Peptide text beside a SMILES is read from it.
Tested on: healthy subjects
Assay: Safety and tolerability, adverse events, Part B MAD
[1] = Part B, 40 μg/day sc 14 days, n = 8
[2] = Part B, 60 μg/day sc 14 days, n = 8
[3] = Part B, 80 μg/day sc 14 days, n = 8
[4] = Part B, total eneboparatide, n = 40

Experimental: A total of five sequential cohorts were included in Part B with ten subjects in each cohort (eight receiving eneboparatide at a dose of 10, 20, 40, 60 and 80 μg/day, respectively, and two receiving placebo in a randomized and double-blind manner). […] They were resident in the study unit until day 17 and FU evaluation was performed on day 21–25.
Safety and tolerability assessments consisted of adverse events (AEs), clinical laboratory (clinical chemistry, haematology, coagulation, and urinalysis), vital signs (blood pressure, pulse rate, respiratory rate, and temperature), 12-lead ECG (Part B), 24 h continuous cardiac monitoring (telemetry; Part A), body weight, physical examination, injection site reaction, and measurement of antidrug antibodies (ADA) in plasma (Part B).

SMILES: CC[C@H](C)[C@H](NC(=O)[C@H](CCC(=O)O)NC(=O)[C@H](C)NC(=O)[C@@H](NC(=O)[C@H](Cc1c[nH]cn1)NC(=O)[C@@H](NC(=O)[C@H](CCC(=O)O)NC(=O)[C@H](C)NC(=O)[C@@H](NC(=O)[C@H](CC(C)C)NC(=O)[C@H](CCCCN)NC(=O)[C@H](Cc1c[nH]cn1)NC(=O)[C@H](CC(C)C)NC(=O)[C@H](Cc1ccccc1)NC(=O)[C@H](C)NC(=O)[C@H](CCCNC(=N)N)NC(=O)[C@H](CCCNC(=N)N)NC(=O)[C@H](CCCNC(=N)N)NC(=O)[C@H](C)NC(=O)[C@H](CC(=O)O)NC(=O)[C@H](CCC(N)=O)NC(=O)[C@@H](NC(=O)[C@H](Cc1c[nH]c2ccccc12)NC(=O)[C@H](CCCCN)NC(=O)[C@H](C)NC(=O)[C@H](CCCNC(=N)N)NC(=O)[C@H](CCC(N)=O)NC(=O)[C@H](Cc1c[nH]cn1)NC(=O)[C@H](CCSC)NC(=O)[C@H](CC(C)C)NC(=O)[C@H](CCC(N)=O)NC(=O)[C@@H](NC(=O)[C@H](CCC(=O)O)NC(=O)[C@H](C)NC(=O)[C@@H](NC(=O)[C@H](C)N)C(C)C)[C@@H](C)CC)[C@@H](C)CC)[C@@H](C)CC)[C@@H](C)CC)[C@@H](C)O)C(=O)O [eneboparatide] (H-AVAEIQLMHQRAKWIQDARRRAFLHKLIAEIHTAEI-OH; N-terminus and C-terminus assumed)
- Fatigue, subjects with TEAE [1]: 0
- Flatulence, subjects with TEAE [1]: 1
- Headache, subjects with TEAE [1]: 3
- Injection site erythema, subjects with TEAE [1]: 4
- Injection site haematoma, subjects with TEAE [1]: 5
- Injection site pain, subjects with TEAE [1]: 0
- Injection site pruritus, subjects with TEAE [1]: 3
- Injection site tenderness, subjects with TEAE [1]: 0
- Insomnia, subjects with TEAE [1]: 1
- Muscle spasms, subjects with TEAE [1]: 2
- Myalgia, subjects with TEAE [1]: 4
- Nausea, subjects with TEAE [1]: 1
- Somnolence, subjects with TEAE [1]: 3
- Vomiting, subjects with TEAE [1]: 0
- Abdominal pain, subjects with TEAE [2]: 1
- Application site irritation, subjects with TEAE [2]: 0
- Catheter site haematoma, subjects with TEAE [2]: 0
- Catheter site pain, subjects with TEAE [2]: 0
- Decreased appetite, subjects with TEAE [2]: 2
- Diarrhoea, subjects with TEAE [2]: 0
- Dizziness, subjects with TEAE [2]: 1
- Dry skin, subjects with TEAE [2]: 0
- Dyspepsia, subjects with TEAE [2]: 2
- Fatigue, subjects with TEAE [2]: 1
- Flatulence, subjects with TEAE [2]: 1
- Headache, subjects with TEAE [2]: 4
- Injection site erythema, subjects with TEAE [2]: 3
- Injection site haematoma, subjects with TEAE [2]: 3
- Injection site pain, subjects with TEAE [2]: 2
- Injection site pruritus, subjects with TEAE [2]: 0
- Injection site tenderness, subjects with TEAE [2]: 2
- Insomnia, subjects with TEAE [2]: 1
- Muscle spasms, subjects with TEAE [2]: 0
- Myalgia, subjects with TEAE [2]: 0
- Nausea, subjects with TEAE [2]: 5
- Somnolence, subjects with TEAE [2]: 3
- Vomiting, subjects with TEAE [2]: 3
- subjects with transient hypercalcaemia (Part B, 80 μg/d, well-tolerated, resolved spontaneously after day 14): six of the eight
- Abdominal pain, subjects with TEAE [3]: 0
- Application site irritation, subjects with TEAE [3]: 0
- Catheter site haematoma, subjects with TEAE [3]: 1
- Catheter site pain, subjects with TEAE [3]: 1
- Decreased appetite, subjects with TEAE [3]: 0
- Diarrhoea, subjects with TEAE [3]: 0
- Dizziness, subjects with TEAE [3]: 1
- Dry skin, subjects with TEAE [3]: 0
- Dyspepsia, subjects with TEAE [3]: 0
- Fatigue, subjects with TEAE [3]: 0
- Flatulence, subjects with TEAE [3]: 0
- Headache, subjects with TEAE [3]: 1
- Injection site erythema, subjects with TEAE [3]: 2
- Injection site haematoma, subjects with TEAE [3]: 3
- Injection site pain, subjects with TEAE [3]: 0
- Injection site pruritus, subjects with TEAE [3]: 1
- Injection site tenderness, subjects with TEAE [3]: 1
- Insomnia, subjects with TEAE [3]: 0
- Muscle spasms, subjects with TEAE [3]: 0
- Myalgia, subjects with TEAE [3]: 0
- Nausea, subjects with TEAE [3]: 4
- Somnolence, subjects with TEAE [3]: 2
- Vomiting, subjects with TEAE [3]: 1
- Abdominal pain, subjects with TEAE [4]: 2 (5) n (%)
- Application site irritation, subjects with TEAE [4]: 3 (7.5) n (%)
- Catheter site haematoma, subjects with TEAE [4]: 5 (12.5) n (%)
- Catheter site pain, subjects with TEAE [4]: 6 (15) n (%)
- Decreased appetite, subjects with TEAE [4]: 3 (7.5) n (%)
- Diarrhoea, subjects with TEAE [4]: 3 (7.5) n (%)
- Dizziness, subjects with TEAE [4]: 3 (7.5) n (%)
- Dry skin, subjects with TEAE [4]: 2 (5) n (%)
- Dyspepsia, subjects with TEAE [4]: 5 (12.5) n (%)
- Fatigue, subjects with TEAE [4]: 3 (7.5) n (%)
- Flatulence, subjects with TEAE [4]: 4 (10) n (%)
- Headache, subjects with TEAE [4]: 10 (25) n (%)
- Injection site haematoma, subjects with TEAE [4]: 17 (42.5) n (%)
- Injection site pain, subjects with TEAE [4]: 3 (7.5) n (%)
- Injection site pruritus, subjects with TEAE [4]: 6 (15) n (%)
- Injection site tenderness, subjects with TEAE [4]: 3 (7.5) n (%)
- Insomnia, subjects with TEAE [4]: 3 (7.5) n (%)
- Muscle spasms, subjects with TEAE [4]: 2 (5) n (%)
- Myalgia, subjects with TEAE [4]: 5 (12.5) n (%)
- Nausea, subjects with TEAE [4]: 12 (30) n (%)
- Somnolence, subjects with TEAE [4]: 9 (22.5) n (%)
- Vomiting, subjects with TEAE [4]: 4 (10) n (%)
- telemetry (Part A) or ECG (Part B), blood pressure, heart rate, respiratory rate (Parts A and B): No changes of clinical relevance
- serious or severe AEs (Parts A and B: single up to 120 μg, multiple up to 80 μg/day for 14 days): No serious or severe AEs were reported
- vomiting (mild/moderate AE associated with hypercalcaemia), subjects (highest doses tested): four out of 40
